This is an account of results in article PMC8509705, “Liquid-Liquid Chromatography Separation of Guaiane-Type Sesquiterpene Lactones from Ferula penninervis Regel & Schmalh. and Evaluation of Their In Vitro Cytotoxic and Melanin Inhibitory Potential” (International Journal of Molecular Sciences, 2021).

Series [1] relates to αMSH-stimulated murine melanoma B16F10 cells. As to the kind of experiment: Melanin release in conditioned medium of αMSH-stimulated B16F10 cells. Type of series: cell-based. Particulars: αMSH 10 nM, 72 h; for melanin release in the medium: 10 μg/mL. As for the experimental part: (§1) Figure 5 Influence of Ferula penninervis root extract and isolated sesquiterpene lactones on melanin release in conditioned medium (A), melanin content in cell lysate (B) and cell viability (C) in α-MSH-stimulated murine melanoma B16F10 cells. B16F10 cells were seeded in 6-well plates (0.5 × 10^5/well) and treated with extract (100 μg/mL) or sesquiterpene lactones (10 μg/mL); melanin production was stimulated with α-MSH (10 nM). Kojic acid (100 μg/mL) was used as positive control. After 72 h, the melanin release/content and cell viability were assessed. Data are expressed as the percentage of melanin release/content in comparison with α-MSH stimulated control cells (α-MSH+) (A,B) or as percentage change in viability in comparison to the vehicle (DMSO) treated control group (C). Each point represents the mean ± S.E.M. of three independent experiments performed in triplicates; # p < 0.001 vs. non-stimulated control cells (αMSH-); ** p < 0.01; *** p < 0.001 vs. αMSH+ cells.
B16F10 cells were plated in 6-well plates (0.5 × 10^5 cells/well) and grown overnight. The cells were treated with F. penninervis crude extract (100 µg/mL), isolated compounds (10 µg/mL) or the positive control kojic acid (100 μg/mL). Melanin production was stimulated with α-MSH (10 nM). Following 72 h, the conditioned medium and cell pellets were collected. Cell pellets were dissolved in 1 N NaOH and incubated for 2 h at 80 °C. Conditioned media and cell lysates were then transferred to a 96-well plate and the absorbance was measured at λ = 405 nm using FilterMax F5 microplate reader. The content of protein in cell lysates was establish using Bradford assay. The melanin released in the conditioned medium and the melanin content in cell lysates (μg melanin/mg protein) were calculated with the help synthetic melanin calibration curves. The melanin release/content was expressed as the percentage of melanin release/content in comparison with α-MSH stimulated control cells without the tested samples.

The test system is the same in series [2]. As to the kind of experiment: Melanin content in cell lysate of αMSH-stimulated B16F10 cells. In kind it is cell-based. The settings on record: 100 μg/mL, αMSH 10 nM, 72 h. As for the experimental part:
as §1, with “Each point represents the mean ± S.E.M. of three independent experiments performed in triplicates; # p < 0.001 vs. non-stimulated control cells (αMSH-); ** p < 0.01; *** p < 0.001 vs. αMSH+ cells.” left out
B16F10 cells were plated in 6-well plates (0.5 × 10^5 cells/well) and grown overnight. […] Conditioned media and cell lysates were then transferred to a 96-well plate and the absorbance was measured at λ = 405 nm using FilterMax F5 microplate reader. […] The melanin released in the conditioned medium and the melanin content in cell lysates (μg melanin/mg protein) were calculated with the help synthetic melanin calibration curves. The melanin release/content was expressed as the percentage of melanin release/content in comparison with α-MSH stimulated control cells without the tested samples.

The subject of series [3] is androgen-dependent prostate cancer LNCaP cells. As to the kind of experiment: Neutral red uptake cell viability assay, LNCaP cells. In kind it is cell-based. Particulars: Homo sapiens, 48 h; for viability at 50 µg/mL: 50 μg/mL, vs DMSO control; for IC50: neutral red uptake. As to the method:
(§2) Figure 4 Concentration-response curves showing the effect of Ferula penninervis methanolic root extract against gastrointestinal cancer cells (A), prostate cancer cells (B), skin cancer cells (C) and non-cancer cells (D) and the effect of isolated sesquiterpene lactones against prostate cancer LNCaP cells (E) and prostate epithelial PNT2 cells (F). Cells were seeded in 96-well plates (3 × 10^3/well) and treated with increasing concentrations of extract (12.5–200 μg/mL) or sesquiterpene lactones (3.125–50 μg/mL); after 48 h, the cell viability was evaluated using neutral red uptake assay. Data are expressed as percentage change in viability in comparison to the vehicle (DMSO) treated control group. Each point represents the mean ± S.E.M. of three independent experiments performed in triplicates.
Androgen-dependent prostate cancer (derived from lymph node metastasis) LNCaP (ATCC® CRL-1740), androgen-insensitive prostate cancer (derived from brain metastasis) DU145 (ATCC® HTB-81), androgen-insensitive prostate cancer (derived from bone metastasis) PC3 (ATCC® CRL-1435) and prostate epithelial PNT2 (ECACC® 95012613) cell lines were kindly provided by Dr. Vera Knäuper, School of Dentistry, Cardiff University (Cardiff, UK), whereas human colorectal carcinoma Caco-2 (ATCC® HTB-37) cell line was provided by Dr. Konrad Szychowski (University of Information Technology and Management, Rzeszów, Poland). Human gastric cancer (derived from liver metastasis) N87 (ATCC® CRL-5822), human colorectal cancer HT-29 (ATCC® HTB-38), human malignant melanoma A375 (ATCC CRL-1619), human squamous cell cancer SCC-15 (ATCC® CRL-1623) cell lines, murine melanoma B16F10 (ATCC® CRL-6475) and human skin BJ fibroblast (ATCC® CRL-2522) cell lines were purchased from LGC Standards (Łomianki, Poland), whilst immortalized human keratinocyte HaCaT cell lines were bought from Cell Lines Service (CLS) GmbH (Eppelheim, Germany).
LNCaP, PNT2 and N87 cells were grown in RPMI-1640 medium; PC3 cells were cultured in Ham’s F12; DU145, Caco-2 and BJ cells were maintained in EMEM. SCC-15 cell line was grown in DMEM:F12, whilst B16F10, HaCaT and HT-29 cell lines were maintained in DMEM. All conditioned media were supplemented with 10% FBS for all cell lines, except for Caco-2 cells which were grown in EMEM supplemented with 20% FBS. The cells were cultured at 37 °C in a humidified atmosphere with 5% CO2.
(§3) Neutral red uptake (NRU) assay was performed as described by Repetto et al.. Briefly, cells were seeded in 96-well plates (3 × 10^3 cells/well) and grown overnight. The cells were then treated with increasing concentrations of F. penninervis crude extract (12.5–200 µg/mL) and isolated compounds (3.125–50 µg/mL) or the positive control 5-FU (1 µg/mL). The control cells were grown in appropriate culture medium containing equal volume of the used solvent (DMSO). After 48 h, the cells were incubated for 3 h with neutral red solution (33 µg/mL) in conditioned medium containing 1% FBS. […] The absorbance of the released neutral red was measured at λ = 540 nm using FilterMax F5 microplate reader and corrected by the absorbance at λ = 620 nm. The mean measured value for the lysate from control cells was set as 100% cellular viability and used to calculate the percentage of viable cells following extracts treatment.
(§4) All experiments were performed in triplicate and the results were expressed as mean ± standard error of mean (SEM). […]

The test system of series [4] is prostate epithelial PNT2 cells. Briefly: Neutral red uptake cell viability assay, PNT2 cells. In kind it is cell-based. Particulars: 48 h. As for the experimental part:
as §2, with “triplicates. […]” for “triplicates.”
Neutral red uptake (NRU) assay was performed as described by Repetto et al.. […] The absorbance of the released neutral red was measured at λ = 540 nm using FilterMax F5 microplate reader and corrected by the absorbance at λ = 620 nm. The mean measured value for the lysate from control cells was set as 100% cellular viability and used to calculate the percentage of viable cells following extracts treatment.
as §4

The test system of series [5] is αMSH-stimulated murine melanoma B16F10 cells. As to the kind of experiment: Neutral red uptake viability at 72 h in αMSH-stimulated B16F10 cells. In kind it is cell-based. The settings on record: extract 100 μg/mL, lactones 10 μg/mL, kojic acid 100 μg/mL, vs αMSH- cells. As to the method:
To evaluate the effects of F. penninervis methanolic root extract and its isolated guaiane-type sesquiterpene lactones on the melanin synthesis and release, the melanin assay was carried out. For this purpose, the production of melanin in murine melanoma B16F10 cells was stimulated with αMSH. […] Furthermore, to exclude the possibility that the observed inhibitory effects on the melanin production might have resulted through a reduced number of viable cells, neutral red uptake assay at 72 h was performed (Figure 5C and Figure S17). […] To our knowledge, there are no previous studies reporting the melanin production inhibitory potential of Ferula genus or isolated constituents. Nevertheless, the anti-melanogenic effects of different phytochemicals were repeatedly evidenced in various cell-based assays.
as §1, §3

In series [6] the test system is B16F10 cells. The settings on record: cited from earlier work.
In series [7] the test system is B16F10 cells. On the set-up: method as in doi:10.1186/s13765-019-0468-7. The settings on record: 3 and 6 μM; cited from earlier work.
For a further series, the system named is MCF-7 cells. Also on record: method as in PMID 24320993. Particulars: cited from earlier work.
For series [8], the system named is erythroleukemia K562 cells. On the set-up: method as in PMID 24320993. The settings on record: cited from earlier work.

One may read the viability as the share of living cells, or the viability signal relative to a control. Read a low viability as more harm to the cells. As a reminder, the IC50 is the concentration that inhibits the measured activity by half.

Molecules are shown by their SMILES. Converted amounts (≈) assume the structure as drawn.

`CC1=CC(=O)C2=C(C)C[C@H](OC(=O)C(C)C)[C@@H]3[C@@H](OC(=O)[C@@]3(C)OC(=O)C(C)C)[C@H]12` [ferupennin Q, 2-oxo-8α,11α-diisobutyroyloxy-5βH,6αH,7αH-gua-1(10),3-diene-6,12-olide]: in series [1], the “melanin release in the medium” value is “inactive”.
Turning to `O=c1cc(CO)occ1O` [kojic acid, reference compound], the “melanin content in the cell lysate” value in series [2] is reported as “but not the melanin content”. The “melanin release in the conditioned medium” value in series [1] (100 μg/mL) is given as 35.88 ± 3.45 % of αMSH+ control cells.
On to `C/C=C(/C)C(=O)O[C@H]1CC(C)=C2C(=O)C=C(C)[C@H]2[C@@H]2OC(=O)[C@@](C)(OC(C)=O)[C@@H]21` [laferin], for which, in series [3], the viability at 50 µg/mL turned out to be 14.4 ± 1.69% and the midpoint of inhibition, the IC50, lay at 23.3 µg/mL (≈ 57.8 µM). For the same molecule, the cell survival in series [4] (50 µg/mL (highest tested concentration)) amounted to 53.85 ± 1.71%. Besides, the “viability of B16F10 cells” value in [5] is given as “without influencing the viability of B16F10 cells”.
In [3], `C=C(C)C(=O)O[C@H]1CC(C)=C2C(=O)C=C(C)[C@H]2[C@@H]2OC(=O)[C@@](C)(OC(C)=O)[C@@H]21` [olgin] yielded a viability at 50 µg/mL of 43.1 ± 3.52% and an IC50 of 31 µg/mL (≈ 79.9 µM). In addition, the “effect on viability of PNT2 control cells” value in series [4] (3.125–50 μg/mL) was “did not significantly affect the viability”. For the same molecule, the “viability of B16F10 cells” value in series [5] is “without influencing the viability of B16F10 cells”. Besides, the “melanin release in the medium” value in [1] is given as 40.67–65.48 % of αMSH+ control cells.
On to `C[C@@H]1O[C@@H](O[C@@H]2[C@@H](O)[C@H](O)[C@@H](CO)O[C@H]2c2c(O)cc(O)c3c(=O)cc(-c4ccc(O)cc4)oc23)[C@H](O)[C@H](O)[C@H]1O` [vitexin-2ʺ-O-rhamnoside], for which, in the series with B16F10 cells [6] (5 μM), the “decrease of intracellular melanin production compared to untreated cells” value is “threefold”.
In turn, `O=c1[nH]cc(F)c(=O)[nH]1` [5-FU, 5-Fluorouracil, reference compound] registered a viability at 5 µg/mL in series [3] (positive control at 5 μg/mL) of 50.6 ± 3.28%.
`CC=C(C)C(=O)OC1CC(C)=C2C(=O)C=C(C)C2C2OC(=O)C(C)(OC(=O)C(C)C)C12` (stereo not drawn) [daucoguaianolactone F, daucoguainolactone F]: in [1], the “melanin release in the medium” value is “inactive”.
As to `C=C(C)C(=O)O[C@H]1CC(C)=C2C(=O)C=C(C)[C@H]2[C@@H]2OC(=O)[C@@](C)(OC(=O)C(=C)C)[C@@H]21` [olgoferin], the “viability of B16F10 cells” value in series [5] is reported as “without influencing the viability of B16F10 cells”.
As for `C=C(C)C(=O)O[C@H]1CC(C)=C2C(=O)C=C(C)[C@H]2[C@@H]2OC(=O)[C@@](C)(OC(=O)C(C)C)[C@@H]21` [oferin], the “viability of B16F10 cells” value in series [5] is on record as “without influencing the viability of B16F10 cells”.
Consider `COc1cc(/C=C/C(=O)N2CCC=CC2=O)cc(OC)c1OC` [Piperlongumine], for which, in the series with B16F10 cells [7], the “effect on cell growth” value is “no inhibitory effects on the cell growth”. Also, the total melanin production result in the series with B16F10 cells [6] (3 and 6 μM) is given as “significantly reduced the total melanin production”.
In the case of `C=C1C(=O)O[C@@H]2[C@H]1CC[C@]1(C)[C@H](OC(=O)/C(C)=C/C)C=CC(=C)[C@@H]21` [dehydrooopodin], the values for the half-inhibitory concentration (IC50) (in the series with MCF-7 cells; in series [8]) were 15 µM and 5 µM, respectively.
